{"source": "paper PMC3172709", "about": "(Journal of pharmacy & pharmaceutical sciences : a …, 2011)", "key": {"MDR1 mRNA": {"test_system": "MDR1 mRNA", "details": "LS-180 cells, 48 h, 50 μM"}, "P-gp [1]": {"test_system": "P-gp"}, "P-gp [2]": {"test_system": "P-gp", "assay": "in vitro", "details": "human, EC50 to up-regulate P-gp activity"}, "P-gp [3]": {"test_system": "P-gp", "assay": "Western blot analysis of P-gp protein expression in drug-treated LS-180 cells"}, "P-gp [4]": {"test_system": "P-gp", "assay": "in vitro", "details": "human, EC50 to up-regulate P-gp expression"}, "[5]": {"details": "ref Facts & Comparisons 4.0, online edition, cited from earlier work"}, "P-gp [6]": {"test_system": "P-gp", "details": "rat, three-day in vivo treatment, 20 mg/kg once daily; cited from earlier work"}}, "note": "“And” between values parts separate entries of the source, which are not always exact repeats. Identical values can stand only once. Like-named read-outs stand apart in the source and are kept apart here."}
{"molecule": "C1CCc2nnnn2CC1", "note": "[Pentylenetetrazole, pentylenetetrazole]", "values": [{"measurement": "fold increase in MDR1 mRNA level", "setting": "MDR1 mRNA", "value": "~ 3 fold and 3–4 fold"}, {"measurement": "induction in P-gp activity", "setting": "P-gp [1]; LS-180 cells, 48 h, 50 μM", "value": 70, "unit": "%"}, {"measurement": "increase in P-gp activity", "setting": "P-gp [1]; LS-180 cells, 48 h, concentration range 25–100 μM", "value": "~ 80%"}, {"measurement": "increase in P-gp activity", "setting": "P-gp [1]; LS-180 cells, 48 h, concentration range 25–100 μM, listed as pentylenetetrazole", "value": 80, "unit": "%"}, {"measurement": "Emax (fold ↑ in P-gp activity)", "setting": "P-gp [1]; LS-180 cells, 48 h, four-parameter Hill fit", "value": 2.0, "unit": "fold"}, {"measurement": "EC50 at 48 h", "setting": "P-gp [2]", "value": 11.8, "unit": "µM"}, {"measurement": "increase in P-gp expression", "setting": "P-gp [3]; 48 h, 50 μM", "value": "~ 10%"}, {"measurement": "increase in P-gp expression", "setting": "P-gp [3]; 48 h, 100 μM", "value": 100, "unit": "%"}, {"measurement": "up-regulation of P-gp protein levels", "setting": "P-gp [3]; 48 h, concentrations at 50 μM and higher", "value": "≤ 2", "unit": "fold"}, {"measurement": "EC50 at 48 h", "setting": "P-gp [3]; human, EC50 to up-regulate P-gp expression, following normalization to 100%", "value": "> 50", "unit": "µM"}]}
{"molecule": "Cn1c(=O)c2c(ncn2C)n(C)c1=O", "note": "[Caffeine, caffeine]", "values": [{"measurement": "increase in P-gp activity", "setting": "P-gp [1]", "value": "250–300%"}, {"measurement": "EC50 at 48 h", "setting": "P-gp [4]", "value": 9.1, "unit": "µM"}, {"measurement": "plasma concentration, range", "setting": "[5]; after 250 mg dose", "value": "25 to 130", "unit": "µM"}]}
{"molecule": "CO[C@H]1/C=C/O[C@@]2(C)Oc3c(C)c(O)c4c(O)c(c(/C=N/N5CCN(C)CC5)c(O)c4c3C2=O)NC(=O)/C(C)=C\\C=C\\[C@H](C)[C@H](O)[C@@H](C)[C@@H](O)[C@@H](C)[C@H](OC(C)=O)[C@@H]1C", "note": "[Rifampicin]", "values": [{"measurement": "increase in P-gp activity", "setting": "P-gp [1]; LS-180 cells, 48 h, over the range 5–100 μM", "value": "60–290%"}, {"measurement": "EC50 at 48 h", "setting": "P-gp [4]", "value": 5, "unit": "µM"}, {"measurement": "plasma concentrations, range", "setting": "[5]; following 600 mg dose", "value": "5 to 38", "unit": "µM"}]}
{"molecule": "CC(C)c1nc(CN(C)C(=O)N[C@H](C(=O)N[C@@H](Cc2ccccc2)C[C@H](O)[C@H](Cc2ccccc2)NC(=O)OCc2cncs2)C(C)C)cs1", "note": "[ritonavir]", "values": [{"measurement": "increase in P-gp expression at the BBB", "setting": "P-gp [6]", "value": 30, "unit": "%"}]}
{"molecule": "hyperforin", "values": [{"measurement": "increase in P-gp activity", "setting": "P-gp [1]; LS-180 cells, 48 h, 50 nM", "value": 110, "unit": "%"}, {"measurement": "increase in P-gp activity", "setting": "P-gp [1]; LS-180 cells, 48 h, 150 nM", "value": 190, "unit": "%"}]}
{"molecule": "C[C@@H]1C[C@H]2[C@@H]3CCC4=CC(=O)C=C[C@]4(C)[C@@]3(F)[C@@H](O)C[C@]2(C)[C@@]1(O)C(=O)CO", "note": "[Dexamethasone, dexamethasone]", "values": [{"measurement": "EC50 at 48 h", "setting": "P-gp [4]", "value": 46, "unit": "µM"}]}
